Source: patent US3989746A, “Substituted naphthyl anthranilic acids” (Ikeda Mohando Co., Ltd., priority 1972, dated 1976)

What was measured:
inflammatory pain = test: Analgesic effect on inflammatory pain (modified Randall and Selitto); format: in vivo, rats (male, Wister type); details: 100 mg/Kg oral, 1 hour before carragheenin; pain measured 3 hours after injection
Method: Groups of male rats of the Wister type having a body weight of about 150 g were tested, each group consisting of 5 rats. The rats were caused to abstain from food overnight, and 0.05 ml of a 1% carragheenin solution was hypodermically injected into the right hind leg of each rat. […] The test compound was orally administered in a dosage of 100 mg/Kg 1 hour before the injection of carragheenin. [formula]

Ultraviolet erythema = test: Ultraviolet erythema; format: in vivo, guinea pigs (male, Hartley type); details: Cavia porcellus, light or radiation study; 10 mg/Kg oral, 1 h before irradiation; read 3 h after irradiation; read-out: Anti-Inflammatory Effect Control Ratio, Ultraviolet Erythema
Method: The test was conducted according to a modification of the method of C. […] Groups of guinea pigs (male guinea pigs of the Hartley type having a body weight of 300 to 450 g), each group consisting of 5 to 10 guinea pigs, were employed for the test. Hairs were removed from backs of the guinea pigs by an electric hair-clipper and a depilatory agent. The guinea pigs were caused to abstain from food for 18 to 19 hours, and a test compound was orally administered in an amount of 10 mg/Kg in the form suspended in a 4% gum arabic liquor. In the case of control groups, only a 4% gum arabic liquor was administered. An adhesive plaster according to the Japanese pharmacopoeia, on which three small holes having a diameter of 5 mm were opened, was applied to the hair-removed portion of the back. […] When 3 hours had passed from the irradiation, the degree of the formation of erythema was determined. One point was given to the guinea pig on which a definite round erythema was formed, a point of 0.5 was given to the guinea pig on which formation of erythema was observed but its contour was not definite, and a point of 0 was given to the guinea pig on which no erythema was formed. Total points were calculated in both the test compound-administered group and the control group, and the control ratio was calculated from these total points. [formula]

male mice = test: in vivo; details: 7 days
Method: (§1) With respect to the foregoing test compounds, the acute toxicity was examined by employing mice according to the following method.
(§2) Groups of male mice of the dd type having a body weight of 18 to 22 g, each, group consisting of 5 mice, were tested to determine the acute toxicity. The test compound was orally administered in a dosage indicated in Table 3a in the form suspended in 5% gum arabic liquor. The determination was conducted 7 days after the administration. Further, the LD50 values were calculated according to the method of Lichfield-Wilcoxon.

in vivo [1] = details: mouse, in vivo, po
Method: as §1, §2

in vivo [2] = details: rat, po
Carragheenin foot edema = test: Carragheenin foot edema; format: in vivo, rats (male, Wister type); details: Rattus norvegicus; 100 mg/Kg oral, 1 h before carragheenin; foot volume 3 h after injection; read-out: Anti-Inflammatory Effect Control Ratio, Carragheenin Foot Edema
Method: a. Carragheenin food edema
The test was conducted according to the method of C. […] Groups of rats (male rats of the Wister type having a body weight of 140-170 g), each group consisting of 5 to 11 rats, were caused to abstain from food for 16 hours, and a 4% gum arabic suspension of a test compound was orally administered to the rats in an amount of 100 mg/Kg. of the test compounds. Immediately, rats were allowed to drink 5 ml of purified water. […] After 3 hours had passed from the injection, the volume of the right foot was measured again to determine the increase of the volume of the right foot. In control groups, only a 4% gum arabic liquor free of a test compound was orally administered, and subsequent procedures were conducted similarly to determine the increase of the volume of the right foot. The carragheenin foot edema control ratio was calculated according to the following formula: [formula] wherein C indicates the foot volume increase in the control group and D indicates the foot volume increase in the test compound-administered group.

Adjuvant arthritis = test: Adjuvant arthritis; format: in vivo, rats (female, Wister type); details: Rattus norvegicus, 552 h; 9 mg/Kg per day oral for 25 days; foot volume on 23rd day from adjuvant injection; read-out: Anti-Inflammatory Effect Control Ratio, Adjuvant Arthritis
Method: With respect to the foregoing compounds, anti-inflammatory effects against carragheenin foot edema, ultraviolet erythema and adjuvant arthritis were tested by using rate according to the following methods to obtain results shown below.
The test was conducted according to a modification of the method of B. B. Newbould (Brit. J. Pharmacol., 21, 127 (1963)). Groups of female rats of the Wister type having a body weight of 180 - 240 g, each group consisting of 4 to 8 rats, were tested. 0.05 ml of an adjuvant (formed by suspending 5 mg of dead tuberculous bacillus, Aoyama B strain, in 1 ml of fluid paraffin according to the Japanese pharmacopoeia) was hypodermically injected in the right foot heel of each rat. A test compound was orally administered in a dosage of 9 mg/Kg per day in the form suspended in a 5% gum arabic liquor continuously for 25 days from one day before the injection of the adjuvant. In the case of the control group, only a 5% gum arabic liquor was continuously administered in the same manner. The volume of the right foot was measured 1 day before the injection of the adjuvant and on the 23rd day from the injection of the adjuvant with respect to each group. Thus, the increase of the foot volume was calculated in either the test compound-administered group or the control group, and the ratio of control of the adjuvant arthritis was calculated according to the following formula: [formula] in which C is the increase of the volume of the right foot in the control group and D indicates the increase of the volume of the right foot in the test compound-administered rat group.

SMILES	Analgesic Coefficient (inflammatory pain)	inhibition in vivo at 10 mg/kg (Ultraviolet erythema) [%]	Number of Dead Mice/Number of Mice Tested (male mice; 1 g/kg oral)	Number of Dead Mice/Number of Mice Tested (male mice; 2 g/kg oral)	Number of Dead Mice/Number of Mice Tested (male mice; 3 g/kg oral)	Number of Dead Mice/Number of Mice Tested (male mice; 4 g/kg oral)	LD50 at 168 h (in vivo [1]) [mg/kg]	LD50 (in vivo [2]) [mg/kg]	inhibition in vivo at 100 mg/kg (Carragheenin foot edema) [%]	inhibition in vivo at 9 mg/kg (Adjuvant arthritis) [%]
O=C(O)c1ccccc1Nc1ccc(Cl)c2ccccc12 [Compound 1, n-(4-chloro-1-naphthyl)anthranilic acid]	1.36	38	0 / 5	0 / 5	0 / 5	3 / 5	> 12000	> 10000	25.7	7.5
O=C(O)c1ccccc1Nc1c(Cl)cc(Cl)c2ccccc12 [Compound 2, N-(2,4-dichloro-1-naphthyl)anthranilic acid]	1.70	68.9	0 / 5	0 / 5	0 / 5	0 / 5	> 12000	8500	27	53.5
O=C(O)c1ccccc1Nc1c(Cl)cc(Br)c2ccccc12 [Compound 8, N-(2-chloro-4-bromo-1-naphthyl)anthranilic acid]	1.72	77.3	0 / 5	0 / 5	0 / 5	4 / 5	–	–	27.6	31.2
O=C(O)c1ccccc1Nc1cccc(C(F)(F)F)c1 [Compound F, flufenamic acid, reference compound]	1.42	60	5 / 5	5 / 5	–	–	545	270	60.7	72.4
Cc1cccc(Nc2ccccc2C(=O)O)c1C [Compound M, mefenamic acid, reference compound]	1.50	38.1	5 / 5	5 / 5	–	–	–	–	50.6	48.1
CCCCc1ccc2ccccc2c1Nc1ccccc1C(=O)O [N-(2-butyl-naphthyl-1-anthranilic acid]	1.38	50.3	0 /10	0 /10	0 /10	–	–	–	31	26.2
